Common to all, as to assay: In vitro antibacterial activity, microtitration dilution method (MIC)
Holding throughout (assay type): cell-based

Assay [1] relates to Enterobacter cloacae MA 2646. From the text:
(§1) The compounds of the invention display antibacterial activity when tested by the microtitration dilution method as described in Heifetz, et al, Antimicr. Agents & Chemoth., 6, 124 (1974), which is incorporated herein by reference. By use of this method, the followed minimum inhibitory concentration values (MICs in μg/mL) were obtained for representative compounds of the invention.

In the next assay the test system is Escherichia coli Vogel. Conditions: Escherichia coli Vogel, microtitration dilution; read-out: Minimal Inhibitory Concentration MIC.
Excerpt: as §1

For assay [2], the system named is Staphylococcus aureus H 228. The settings on record: H228; Staphylococcus aureus H 228, microtitration dilution; read-out: Minimal Inhibitory Concentration MIC.
Excerpt: as §1

Assay [3] has as its system Streptococcus pyogenes C-203. The settings on record: C203; Streptococcus pyogenes C-203, microtitration dilution; read-out: Minimal Inhibitory Concentration MIC.
Excerpt: as §1

Assay [4] concerns Klebsiella pneumoniae MGH-2. From the text:
(§2) Agents & Chemoth., 6, 124 (1974), which is incorporated herein by reference.

A further assay relates to Proteus rettgeri M 1771. Conditions: Providencia rettgeri.
Excerpt: as §2

The subject of assay [5] is Pseudomonas aeruginosa UI-18.
Excerpt: as §2

In assay [6] the test system is Staphylococcus aureus UC-76. Conditions: UC76; Staphylococcus aureus UC-76, microtitration dilution; read-out: Minimal Inhibitory Concentration MIC.
Excerpt: as §2

The subject of assay [7] is Streptococcus faecalis MGH-2. The settings on record: Enterococcus faecalis, MGH2; Streptococcus faecalis MGH-2, microtitration dilution; read-out: Minimal Inhibitory Concentration MIC.
Excerpt: as §2

The test system of assay [8] is Streptococcus pneumoniae SV-1. The settings on record: SV1; Streptococcus pneumoniae SV-1, microtitration dilution; read-out: Minimal Inhibitory Concentration MIC.
Excerpt: as §2

Where [9] appears, read: Enterobacter cloacae, MA2646, read-out: Minimal Inhibitory Concentration MIC.
Setting [10] is: Klebsiella pneumoniae, MGH2, read-out: Minimal Inhibitory Concentration MIC.
The mark [11] stands for this setting: M1771, Proteus rettgeri M 1771, microtitration dilution, read-out: Minimal Inhibitory Concentration MIC.
The mark [12] stands for this setting: UI18, Pseudomonas aeruginosa UI-18, microtitration dilution, read-out: Minimal Inhibitory Concentration MIC.
[13] abbreviates: MA2646, Enterobacter cloacae MA 2646, microtitration dilution, read-out: Minimal Inhibitory Concentration MIC.
[14] abbreviates: MGH2, Klebsiella pneumoniae MGH-2, microtitration dilution, read-out: Minimal Inhibitory Concentration MIC.
The mark [15] stands for this setting: M1771, read-out: Minimal Inhibitory Concentration MIC.

Each structure is given as a SMILES string. In brackets after ≈: the same amount, converted by molar mass. Where two headings read alike, the source gives them in different places.

For the molecule `Cc1c(F)c(N2CCC(N)C2)cc2c1c(=O)c(C(=O)O)cn2-c1ccc(F)cc1F` (stereo not drawn) [Ex. 17c, 7-(3-Amino-1-pyrrolidinyl)-6-fluoro-1-(2,4-difluorophenyl)-1,4-dihydro-5-methyl-4-oxo-3-quinolinecarboxylic acid], the MIC was 0.05 µg/mL (≈ 0.12 µM) in assay [1] (setting [9]); 0.05 µg/mL (≈ 0.12 µM) in the assay with Escherichia coli Vogel; 0.05 µg/mL (≈ 0.12 µM) in assay [2]; 0.05 µg/mL (≈ 0.12 µM) in [3]; 0.1 µg/mL (≈ 0.24 µM) in assay [4] (setting [10]); 0.2 µg/mL (≈ 0.479 µM) in the assay with Proteus rettgeri M 1771 (setting [11]). Moreover, the MIC was determined as 0.8 µg/mL (≈ 1.92 µM) in [5] (setting [12]), 0.013 µg/mL (≈ 0.0311 µM) in [6], 0.1 µg/mL (≈ 0.24 µM) in [7] and 0.025 µg/mL (≈ 0.0599 µM) in assay [8].

As for `Cc1c(F)c(N2CCC(C)(CN)C2)cc2c1c(=O)c(C(=O)O)cn2-c1ccc(F)cc1F` (stereo not drawn) [Ex. 17e, 7-[3-(Aminomethyl)-3-methyl-1-pyrrolidinyl]-6-fluoro-1(2,4-difluorophenyl)-1,4-dihydro-5-methyl-4-oxo-3-quinolinecarboxylic acid], the MIC is 0.4 µg/mL (≈ 0.898 µM) in [1] (setting [13]); 0.4 µg/mL (≈ 0.898 µM) in the assay on Escherichia coli Vogel; 0.05 µg/mL (≈ 0.112 µM) in [2]; 0.025 µg/mL (≈ 0.0561 µM) in assay [3]; 0.8 µg/mL (≈ 1.8 µM) in [4] (setting [14]); 0.8 µg/mL (≈ 1.8 µM) in the assay with Proteus rettgeri M 1771 (setting [11]). Further, the MIC in assay [5] (setting [12]) is 3.1 µg/mL (≈ 6.96 µM); in assay [6], 0.013 µg/mL (≈ 0.0292 µM); in assay [7], 0.2 µg/mL (≈ 0.449 µM); in assay [8], 0.013 µg/mL (≈ 0.0292 µM).

As to `Cc1c(F)c(N2CCC(N)C2)nc2c1c(=O)c(C(=O)O)cn2C1CC1` (stereo not drawn) [Ex. 18, 7-(3-Amino-1-pyrrolidinyl)-1-cyclopropyl-6-fluoro-1,4-dihydro-5-methyl-4-oxo-1,8-naphthyridine-3-carboxylic acid], the MIC in [1] (setting [13]) came to 0.013 µg/mL (≈ 0.0375 µM); in the assay on Escherichia coli Vogel, 0.013 µg/mL (≈ 0.0375 µM); in [2], 0.25 µg/mL (≈ 0.722 µM); in assay [3], 0.025 µg/mL (≈ 0.0722 µM); in assay [4] (setting [14]) it was 0.025 µg/mL (≈ 0.0722 µM); in the assay on Proteus rettgeri M 1771 (setting [15]), 0.1 µg/mL (≈ 0.289 µM). Also, the MIC was determined as 0.2 µg/mL (≈ 0.577 µM) in assay [5] (setting [12]), 0.013 µg/mL (≈ 0.0375 µM) in assay [6], 0.05 µg/mL (≈ 0.144 µM) in assay [7] and 0.013 µg/mL (≈ 0.0375 µM) in [8].

`Cc1c(F)c(N2CCNCC2)nc2c1c(=O)c(C(=O)O)cn2C1CC1` [Ex. 19, 1-Cyclopropyl-6-fluoro-1,4-dihydro-5-methyl-4-oxo-7-(1-piperazinyl)-1,8-naphthyridine-3-carboxylic acid]: the MIC was found to be 0.025 µg/mL (≈ 0.0722 µM) in assay [1] (setting [13]); 0.013 µg/mL (≈ 0.0375 µM) in the assay on Escherichia coli Vogel; 0.2 µg/mL (≈ 0.577 µM) in assay [2]; 0.4 µg/mL (≈ 1.15 µM) in assay [3]; 0.05 µg/mL (≈ 0.144 µM) in assay [4] (setting [14]); 0.2 µg/mL (≈ 0.577 µM) in the assay with Proteus rettgeri M 1771 (setting [11]). The MIC in assay [5] (Pseudomonas aeruginosa, UI18, read-out: Minimal Inhibitory Concentration MIC) was determined as 0.4 µg/mL (≈ 1.15 µM); in [6], 0.1 µg/mL (≈ 0.289 µM); in [7] it was 0.2 µg/mL (≈ 0.577 µM); in assay [8], 0.1 µg/mL (≈ 0.289 µM).

As to `Cc1c(F)c(N2CCC(N)C2)nc2c1c(=O)c(C(=O)O)cn2-c1ccc(F)cc1F` (stereo not drawn) [Ex. 22, 7-(3-Amino-1-pyrrolidinyl)-1-(2,4-difluorophenyl)-6-fluoro-1,4-dihydro-5-methyl-4-oxo-1,8-naphthyridine-3-carboxylic acid], the MIC turned out to be 0.05 µg/mL (≈ 0.12 µM) in assay [1] (setting [9]); 0.05 µg/mL (≈ 0.12 µM) in the assay on Escherichia coli Vogel; 0.05 µg/mL (≈ 0.12 µM) in [2]; 0.05 µg/mL (≈ 0.12 µM) in [3]; 0.05 µg/mL (≈ 0.12 µM) in [4] (setting [14]); 0.1 µg/mL (≈ 0.239 µM) in the assay with Proteus rettgeri M 1771 (setting [15]). In addition, the MIC in assay [5] (setting [12]) is 0.2 µg/mL (≈ 0.478 µM); in assay [6], 0.013 µg/mL (≈ 0.0311 µM); in assay [7], 0.1 µg/mL (≈ 0.239 µM); in assay [8] it was 0.05 µg/mL (≈ 0.12 µM).

As to `Cc1c(F)c(N2CC[C@@H]([C@H](C)N)C2)nc2c1c(=O)c(C(=O)O)cn2-c1ccc(F)cc1F` [Ex. 23, 3R, 1'S-7-[3-(1-Aminoethyl)-1-pyrrolidinyl]-1-(2,4-difluorophenyl)-6-fluoro-1,4-dihydro-5-methyl-4-oxo-1,8-naphthyridine carboxylic acid], the MIC in [1] (setting [13]) amounted to 0.2 µg/mL (≈ 0.448 µM); with Escherichia coli Vogel, 0.1 µg/mL (≈ 0.224 µM); in [2], 0.006 µg/mL (≈ 0.0134 µM); in [3] it was 0.003 µg/mL (≈ 0.00672 µM); in assay [4] (setting [10]) it was 0.1 µg/mL (≈ 0.224 µM); with Proteus rettgeri M 1771 (setting [11]) it was 0.2 µg/mL (≈ 0.448 µM). In addition, the MIC in [5] (setting [12]) was 0.2 µg/mL (≈ 0.448 µM); in [6] it was 0.003 µg/mL (≈ 0.00672 µM); in [7], 0.013 µg/mL (≈ 0.0291 µM); in assay [8], 0.003 µg/mL (≈ 0.00672 µM).

These data come from US5585491A, “Antibacterial agents” (Otsuka Pharmaceutical Co., Ltd., priority 1995, dated 1996).
